From a melting point compilation (Tetko et al.; mined from patent text by program, amines drawn as free bases though some values may be those of a salt)

SMILES	melting point [°C]
O=C(NCc1ccn(C2=CC3=C(CC2)CCc2[nH]c(=O)c(=O)n(O)c23)c1)Nc1ccc(C(=O)O)cc1	> 300
CCCCCCCCCCSc1ccc(C(=O)O)cc1	108 to 109
Cc1oc(-c2ccccc2)nc1COc1ccc(C=O)cc1	103 to 105
O=C(OCc1ccccc1)N1C[C@@H]2CN(c3ccc(N4C[C@H](CO)OC4=O)cc3)C[C@@H]2C1	163 to 164
COc1cc(C)c(C=CC(C)=CC=CC(C)=CC(=O)O)c(C)c1	207 to 208
COC(=O)COc1ccc(F)c2c1c1c(n2Cc2ccccc2)CCCC1C(N)=O (configuration not stated)	183 to 185
COC(=O)C1Oc2ccc(C)cc2C(C)(c2ccccc2)O1 (configuration not stated)	100
CCCCCCCCCCCC(O)CC(=O)C(CCCCCC)C(=O)OC (configuration not stated)	38 to 39
COc1cc(OC)nc(-n2c(SC)nc3ccccc32)n1	135 to 137
CNc1cc(N2CCN(C(=O)C3CCN(S(=O)(=O)c4ccc(C(F)(F)F)cc4)CC3)CC2)ncn1	237 to 238
CC1(C)CCC(Cc2ccc(Cl)cc2)C1(O)Cn1ncnc1S (configuration not stated)	179 to 180
BrCCC1(c2ccccc2)OCCO1	57 to 58
Cc1nc(NC(=O)c2ccccc2)sc1C(=O)n1ccnc1	228 to 231
CNCc1cccc(COc2nc(Cl)cnc2NS(=O)(=O)c2cccc(Cl)c2Cl)c1	167 to 168
CCN(CC)C(=O)c1sc(Cl)nc1C(F)(F)F	40 to 41
COc1ccc(C2=NN(CCCCCCBr)C(=O)[C@H]3CC=CC[C@@H]23)cc1OC (relative stereo)	55 to 56
CC(C(=O)O)c1cccc(Sc2ccccc2F)c1O (configuration not stated)	116 to 117
CC(C)(C)c1csc(-c2cc3cc(CSc4ccccc4C(=O)O)ccc3o2)n1	205 to 207
CC(C)c1nc(COCc2ccccc2)n(CC2CC2)c1Sc1cc(Cl)cc(Cl)c1	120 to 121
COC(=O)c1cccc2nc(OC)n(Cc3ccc(-c4ccccc4-c4nc(=O)o[nH]4)cc3)c12	215 to 216
O=C1Cc2ccccc2Sc2c1ccc(Cl)c2Cl	133 to 135
Cc1[nH]cnc1CSCCNC1=C([N+](=O)[O-])CCN1	208
O=C1N(Cc2ccc(Cl)s2)c2ccccc2C12COc1ccc(Br)cc12 (configuration not stated)	140 to 142
C=C1N(CC)C(=O)OC12CCN(CCC=C(c1ccc(F)cc1)c1ccc(F)cc1)CC2	138 to 139

SMILES	melting point [°C]
CCCc1nc2c(N)nc3ccccc3c2n1CCC1(O)CCOCC1	181 to 183
CC(C)SN(C)C(=O)Nc1ccc(Cl)c(Cl)c1	65
CC(=O)SCC(Cc1ccccc1)C(=O)Nc1cccc(C(=O)O)c1C (configuration not stated)	162 to 163
Cc1oc(-c2ccccc2)nc1COc1ccc(COc2cccc(CCC(=O)O)c2)cc1	157 to 158
CC(C)(C)CC(C)(C)c1cc(-n2nc3ccc(-c4cccnc4)cc3n2)c(O)c(C(C)(C)c2ccccc2)c1	126 to 128
O=C(c1ccc(O)cc1)c1c(-c2ccc(O)cc2)sc2ccccc12	90
O=S1(=O)NCN(C2CC2)c2c(F)cc(F)cc21	149 to 151
OCCCNc1ccnc(Cl)n1	113 to 114
CCCc1c(OCCCCCCc2ccc3cc(OCc4ccccc4)c(OCc4ccccc4)cc3c2)ccc(C(=O)OCc2ccccc2)c1O	94 to 97
O=C(O)c1nn(-c2ccc(Cl)cc2Cl)c(-c2ccc(Cl)cc2)c1Br	222 to 224
C#CCn1c(-c2ccccc2)nc(C=C)c(CC)c1=O	113 to 115
Cc1ccc(CCC(=O)c2c(O)c3cccnc3n(-c3ccccc3)c2=O)cc1	232 to 234
CCC1(CCCCN2CCN(c3ccccn3)CC2)C(=O)Nc2ccc(C)cc21 (configuration not stated)	168 to 170
CC(=O)N1CCC(CCC(=O)c2cc3c4c(c2)CCN4C(=O)CC3)CC1	157 to 159
CC(C)(C)c1cc(Cn2nc(-c3ccccc3)oc2=O)cc(C(C)(C)C)c1O	164
CS(=O)(=O)c1ccc(C=Cc2cc(=O)cc(-c3ccccc3)o2)cc1	239 to 241
O=c1c2cc(F)c(Cl)nc2n(-c2ccc(F)cc2)c(=O)n1OCc1ccccc1	208 to 209
CC(=O)SCC(Cc1ccccc1)C(=O)Nc1cc(C(=O)O)ccc1O (configuration not stated)	202 to 206
CN(C)C=Cc1c(N)cc([N+](=O)[O-])cc1[N+](=O)[O-]	105 to 107
NC(=S)NN=C(CCCCl)c1cccs1	120 to 122
Cc1cc2c(c(C)c1NC(=O)OC(C)(C)C)C(=O)C(C)(C)O2	156 to 157
N#Cc1cccc(C2=Nc3cc(O)c(-c4ccc(F)cc4)cc3NC(=O)C2)c1	> 250
COC(=O)c1sc(C)cc1N1N=C2c3cc(C)sc3SCC2CC1=O (configuration not stated)	164 to 166
CSC(=S)NN=Cc1nc[nH]c1C	180

SMILES	melting point [°C]
CCCCc1ncc(/C=C(\Cc2cccs2)C(=O)O)n1Cc1ccccc1Cl	175 to 177
CN1CC2C3C=CC(C3)C2(c2cccc(O)c2)C1 (configuration not stated)	129 to 136
CC1(C)CC(=O)OC1c1ccc(Cl)c([N+](=O)[O-])c1 (configuration not stated)	134 to 136
COc1ccc2c(c1)C(=O)Cc1c(cccc1C(=O)O)S2	157 to 160
CC1=NN=C(c2ccc3ccccc3n2)c2cc3oc(=O)[nH]c3cc2C1	304 to 306
Nc1ccn(-c2cccc(Cl)c2)n1	106 to 107
COc1ccc(CC(Cc2ccccc2)C(=O)O)cc1 (configuration not stated)	72 to 76.5
O=C(CCCOc1ccc2nc3[nH]c(=O)[nH]c3cc2c1)N1CCCCC1	284 to 286
O=C(Nc1ccc(OCCN2CCOCC2)c2ccccc12)c1cccc(N2CCCCC2)c1	147 to 148
Cc1cc2oc(=O)c3c(c2cc1C)CCN(CCN1CC2CCC(CC2)C1)C3	174 to 175
COc1ccc([C@@H]2SC(c3ccccc3)=C(C)N(CCN(C)C)C(=O)[C@H]2O)cc1 (relative stereo)	132 to 133
CCOc1c(/C=C\CO)cc(C(C)(C)C)cc1C(C)(C)C	93 to 94
Cc1ccccc1C(=O)c1ccc(Nc2ccccc2NC(=O)CO)cc1F	149 to 150
CCOC(=O)C1=CCCCC1S(=O)(=O)Nn1cccc1CC (configuration not stated)	77 to 78
Nc1ccc(S(=O)(=O)c2cc(-c3ccccc3)nc(N3CCCC3)c2)cc1	255 to 258
CS(=O)(=O)c1ccc(Cl)cc1Cl	71
C[C@@H]1Cc2ccsc2[C@H](C)N1CCCNS(=O)(=O)c1ccc(N)cc1 (relative stereo)	134 to 138
CCOCc1nc2c(N)nc3ccccc3c2n1CCCCCS(=O)(=O)NC	175 to 179
OCC1C=CC(n2cnc3cc(Cl)c(Cl)cc32)C1 (configuration not stated)	166 to 169
C#CCNC(=O)c1cccc(F)c1N	89 to 91
O=C(O)Cc1c(-c2ccc(Cl)cc2)nn(-c2ccccc2)c1-c1ccc(Cl)cc1	204 to 206
Nc1ccc([N+](=O)[O-])cc1S(=O)(=O)CCO	175
O=C(O)Cc1ccc(C(=O)O)cc1Sc1ccc(F)cc1	218 to 221
CCOC(=O)C1OC1c1ccc(OC)cc1 (configuration not stated)	40 to 43
